Experimental data from patent US20240400584A1, “COMPOUNDS AND METHODS FOR MODULATING SPLICING” (REMIX THERAPEUTICS INC., priority 2021, published 2024).
pIC50: −log10 of the molar value.

Key:
Target C = experiment: Gene panel canonical junction qPCR assay, Target C CJ mRNA (Table 7); format: cell-based, human; details: Homo sapiens, read-out: Target C CJ mRNA decrease IC50
Procedure, shortened: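 Treated K562 or A673 cells; measured CJ mRNA by cDNA synthesis and qPCR, 2^(−ΔΔCt) against housekeeper and DMSO. IC50 marks half-maximal CJ decrease.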

[1] = system: HiBit-tagged HTT in K562 cells; experiment: HiBiT protein abundance assay, HTT; format: cell-based, human; details: HiBiT-modified K562 cells, 24 hours, luminescence
Experimental: Compounds described herein were used to screen for effects on quantitative protein abundance using a HiBit assay system (Promega). Quantitative protein abundance was determined by measuring the protein levels of HiBit-tagged protein targets expressed in cell culture via luminescence using the Nano-Glo HiBiT Lytic Detection System, which uses a split complementation assay format to reconstitute NanoBiT enzyme to generate a luminescent signal. A protein abundance assay was developed such that endogenous protein targets could be modified with the HiBiT peptide tag and their abundance could be assessed after compound treatment. Briefly, K562 cell lines containing a HiBiT-modification were treated with various compounds described herein (e.g., compounds of Formulas (I)). After treatment for 24 hours, the protein abundance of a specific target was determined by measuring luminescence.
Cells were maintained in IMDM with 10% FBS. Before the assay, cells were diluted with […] growth media (IMDM+[…] media) and were seeded in a 384-well plate at a density of 10000 cells/well (for each cell line listed in Table 8). Each compound was prepared as a 10-point 3-fold serial dilution in DMSO with the top dose at a final concentration of 10 μM in the well. Unmodified K562 cells were added at the previously specified density with DMSO to serve as an assay baseline and positive control (PC) and DMSO only with the respective modified cell lines was added to the negative control (NC) columns. Final DMSO concentration was kept at or below 0.25% o. Treated cell plates were placed in an incubator at 37° C. with […] for 24 hours. After 24 hours, 25 μL of Complete HiBit Lytic reagent was added to each well at room temperature (e.g. one plate requiring 10 mL Lytic Buffer, 100 μL LgBiT Protein, 200 μL Lytic Substrate), shaken for 5 minutes at 600 RPM, then left to sit for 10 minutes for signal to stabilize before reading on a Spark Cyto plate reader (Tecan) with a 500 ms measurement time.
To determine compound effects on protein abundance of each target in Table 9, the percent response for each respective cell line was calculated at each compound concentration as follows:
For the normalized response at each concentration, a four-parameter logistical regression was fit to the data and the response was interpolated at the […] to determine a concentration for protein abundance at 50% o (IC50) the untreated control.

Row | Structure (SMILES) | pIC50 (Target C) | pIC50 [1]
1 | CC1(C)CC(Nc2ccc3c(n2)COc2cc(-n4cccn4)ccc2-3)CC(C)(C)N1 [Compound 134] | > 7.00 | 5.00 to 6.00
2 | Cc1[nH]ncc1-c1ccc2c(c1)COc1nc(N(C)[C@@H]3C[C@H]4CC[C@@H](C3)N4)ccc1-2 [Compound 154] | 6.00 to 7.00 | > 7.00
